Measured values reported in patent US20110251240A1, “Dosing Regimen of Flavopiridol for Treating Cancer” (OHIO STATE UNIVERSITY RESEARCH FOUNDATION, priority 2005, published 2011).
“Also recorded” adds a separate entry of the source. Where a name gives a salt, the structure may show the parent alone. Read-outs that look alike come from different tables or passages of the source.

Key:
[1] = type: in vitro ADME; settings: bovine
Description: However, despite the promising pre-clinical results with flavopiridol in CLL and virtually all hematologic malignancies, the efficacy of flavopiridol in treating CLL in all of the clinical studies reported thus far are disappointing. […] See for example, Byrd J. C. et al., “Treatment of Relapsed Chronic Lymphocytic Leukemia by 72-hour Continuous Infusion or 1-Hour Bolus Infusion of Flavopiridol: Results from Cancer and Leukemia Group B Study 19805,” Clin. Cancer Res. 2005; 11(11) Jun. 1, 2005, 4176-4181, and references cited therein. The schedules selected in these unsuccessful trials were modeled after in vitro studies performed in fetal bovine serum-based media.
Based upon the poor clinical results in all the trials reported to date with flavopiridol, the present invention contemplated the possibility that differential protein binding could exist between these two culture media. […] Additionally, the 1-hour LC50 concentration for CLL cells in human serum was generally not obtained in the solid tumor phase I trial exploring this schedule. Thus, the prolonged continuous infusion or bolus dosing schedules previously explored in CLL and NHL may not achieve pharmacologically effective drug concentrations of flavopiridol, thereby explaining the absence of activity in the continuous infusion schedules and the marginal activity with the IV bolus schedule. […]

[2] = tested on: patients with CLL or small lymphocytic lymphoma; assay: Example 1 phase I trial: toxicity; type: in vivo
Method: Subjects: All patients provided written informed consent. […] Flavopiridol was administered via a central venous catheter. […] The ability to perform bedside emergent dialysis was assured.
Toxicity Observed with Flavopiridol: Six patients were initially treated in dose level 1 (30 mg/m^2 bolus followed by 30 mg/m^2 4-hour infusion), with one patient having dose limiting toxicity (neutropenic fever). Dose escalation proceeded to dose level 2, with three patients being treated. […] On autopsy, extensive apoptosis/necrosis of diffuse intra-abdominal lymphadenopathy was found. No additional patients were treated at this dose, but patient one of dose level 2, who previously had not experienced TLS at the 80 mg/m^2/dose, developed this toxicity on day 1 of cycle 2 while receiving a 60 mg/m^2 dose. All treatment was put on hold and an aggressive monitoring mechanism was put into place. Fourteen additional patients were treated at the level 1 dose utilizing this protocol. While biochemical evidence of TLS was present in most patients receiving therapy, only one developed significant TLS that required temporary dialysis for medically uncontrollable hyperkalemia on day 1 of therapy. While grade 1 (n=11) or 2 (n=6) diarrhea occurred in the majority of patients treated at the level 1 dose, this was generally short-lived. Similarly, transient grade 1 (n=13) or grade 2 (n=6) fatigue was observed.

[3] = tested on: patients with CLL or small lymphocytic lymphoma; assay: Example 1 phase I trial: response (NCI 96 criteria); type: in vivo, human
Description: (§1) Subjects: All patients provided written informed consent. Patients had CLL or small lymphocytic lymphoma and required therapy according to the NCI criteria. […] Enrollment requirements included: age older than 17 years, symptomatic by the NCI 96 criteria, platelet count greater than 49×10^9/L, ECOG performance status of 2 or less, no active infection or inflammatory bowel disease, and not pregnant. The serum creatinine and total bilirubin levels were required to be no more than 2.0 times the normal value. Design, Treatment and Dose Modifications: This study utilized a modified phase I design, enrolling three to six patients per level until two of the first six patients experienced dose limiting toxicity. Expansion of the dose level below this occurred to a minimum of six patients to assure safety for phase II investigation. Flavopiridol was administered via a central venous catheter. The schedule of flavopiridol included receiving 50% of the dose as a 30-minute bolus infusion and the remaining 50% dose as a 4-hour infusion every week for four consecutive weeks, followed by two weeks off. The total dose administered in level 1 was 60 mg/m^2 (i.e. 30 mg/m^2 as 30 minute bolus followed by 30 mg/m^2 4-hour continuous infusion). In level 2 the dose was 80 mg/m^2 (i.e. 40 mg/m^2 bolus and 40 mg/m^2 infusion). All patients received allopurinol 300 mg/day beginning one day prior to initiation of treatment and continued during therapy. All patients received prophylactic anti-viral and Pneumocystis carinii pneumonia therapy as described previously during and for six months following completion of therapy. […] Aggressive management of hyperkalemia including kayexalate therapy, insulin and glucose therapy, and calcium therapy was employed according to an established protocol. The ability to perform bedside emergent dialysis was assured. Prophylactic rasburicase was utilized in patients with bulky lymphadenopathy or high lymphocyte counts. Following five treatments with flavopiridol, treatment was transitioned to outpatient status with two hours of hydration before and through therapy with abbreviated laboratory monitoring. Patients could discontinue therapy for stable disease without improvement after two cycles (eight treatments). Otherwise, patients continued therapy in the absence of progression or toxicity that prohibited further treatment for a maximum of six cycles (24 treatments) of flavopiridol. Patients were evaluated for response after two, four, and six cycles of therapy. Dose Limiting Toxicity: Dose limiting toxicity was defined as non-hematologic toxicity of grade 3 or greater severity (excluding transient liver function abnormalities, transient non-life-threatening electrolyte abnormalities, fatigue, or diarrhea that resolve within four days), or in some case grade 2 toxicity (i.e. irreversible renal, chronic pulmonary, neurologic, or cardiac toxicity). Hematologic toxicity was dose limiting only if grade 4 thrombocytopenia or neutropenia persisted for seven days or greater. The NCI Common Toxicity Criteria was used to grade non-hematologic toxicity and the NCI 96 CLL criteria for hematologic toxicity. See, Cheson B. D., et al. “National Cancer Institute-sponsored Working Group guidelines for chronic lymphocytic leukemia: revised guidelines for diagnosis and treatment,” Blood 1996; 87:4990-7. Assessment of Response: Criteria for response and progression utilized the Revised NCI-sponsored Working Group Guidelines as mentioned above. As specified by these guidelines, a response had to be maintained for a period of two months.

Mcl-1 = assay: Example 1 cellular pharmacodynamics: immunoblot of Mcl-1 in primary CLL cells during treatment; type: in vivo, human
Description: (§2) Subjects: All patients provided written informed consent. Patients had CLL or small lymphocytic lymphoma and required therapy according to the NCI criteria. […] Enrollment requirements included: age older than 17 years, symptomatic by the NCI 96 criteria, platelet count greater than 49×10^9/L, ECOG performance status of 2 or less, no active infection or inflammatory bowel disease, and not pregnant. The serum creatinine and total bilirubin levels were required to be no more than 2.0 times the normal value. Design, Treatment and Dose Modifications: This study utilized a modified phase I design, enrolling three to six patients per level until two of the first six patients experienced dose limiting toxicity. Expansion of the dose level below this occurred to a minimum of six patients to assure safety for phase II investigation. Flavopiridol was administered via a central venous catheter. The schedule of flavopiridol included receiving 50% of the dose as a 30-minute bolus infusion and the remaining 50% dose as a 4-hour infusion every week for four consecutive weeks, followed by two weeks off. The total dose administered in level 1 was 60 mg/m^2 (i.e. 30 mg/m^2 as 30 minute bolus followed by 30 mg/m^2 4-hour continuous infusion). In level 2 the dose was 80 mg/m^2 (i.e. 40 mg/m^2 bolus and 40 mg/m^2 infusion). […] Patients were evaluated for response after two, four, and six cycles of therapy. […]

RNA polymerase II = assay: Example 1 cellular pharmacodynamics: RNA polymerase II serine-5 phosphorylation in primary CLL cells during treatment; type: in vivo, human; settings: eight patients examined
Description: as §2

[4] = Example 1 plasma pharmacokinetics (LC/MS); settings: for half-life: plasma, intravenous
Description: as §1

patients with CLL [5] = settings: human, in vivo
Description: (§3) Fifty-six patients were enrolled in this clinical trial with the median prior therapies being 4 and the majority being fludarabine-refractory. […] Cohort 1 was expanded with aggressive TLS prophylaxis. Of the 20 patients in cohort 1, 8 (40%) attained a partial response (PR) with median response duration exceeding 12 months. […] Cohort 3 and 4 did this (Table 4) with acceptable toxicity. Cohort 3 included 19 patients of whom 14 were escalated with the 5th dose. […] Ten (53%) of patients attained a partial response. […] TLS risk factors were examined for the first treatment dose in cohorts 1-3. WBC of ≧200×10^9/L were more frequently associated with TLS (5 of 8 pts) versus those with WBC<200×10^9/L (1 of 34 pts). Cohort 4 excludes pts with WBC≧200×10^9/L and currently includes 14 pts. Safety has been acceptable with only 1 case of TLS. Response assessment for cohort 4 is underway, with anti-tumor activity appearing similar to that observed in cohort 3.

patients with CLL [6] = assay: Example 2 clinical trial: response; type: in vivo, human
Description: as §3

[7] = Example 2 clinical trial: plasma Cmax; type: in vivo; settings: human, intravenous
Description: as §3

relapsed CLL = settings: cited from earlier work; for clinical activity / response: CLL, hydrochloride
CLL cells = assay: cells; type: cell-based; settings: Homo sapiens, CLL cell
Description: Based upon the poor clinical results in all the trials reported to date with flavopiridol, the present invention contemplated the possibility that differential protein binding could exist between these two culture media. […] Additionally, the 1-hour LC50 concentration for CLL cells in human serum was generally not obtained in the solid tumor phase I trial exploring this schedule. Thus, the prolonged continuous infusion or bolus dosing schedules previously explored in CLL and NHL may not achieve pharmacologically effective drug concentrations of flavopiridol, thereby explaining the absence of activity in the continuous infusion schedules and the marginal activity with the IV bolus schedule. Given the novel mechanism of action of flavopiridol, as well as its ability to induce apoptosis independent of p53 dysfunction and modulate critical anti-apoptotic proteins such as Mcl-1 in vitro, and utilizing pharmacokinetic modeling a new dosing regimen in accordance with this invention was developed.

[8] = 23 CLL patients, 30-min bolus + 4-h infusion
[9] = Cohort 1, 30 mg/m^2 + 30 mg/m^2, 20 pts
[10] = Cohort 2, 40 mg/m^2 + 40 mg/m^2, 3 pts
[11] = cohort 1, 30 mg/m^2 + 30 mg/m^2
[12] = cohort 3 at the escalated doses (30 mg/m^2 + 50 mg/m^2)

## CN1CCC(c2c(O)cc(O)c3c(=O)cc(-c4ccccc4Cl)oc23)[C@H](O)C1.Cl (stereo partly drawn) [Flavopiridol, (cis-5,7-dihydroxy-2-(2-chlorophenyl)-8-[4-(3-hydroxy-1-methyl)-piperidinyl]-1-benzopyran-4-one) hydrochloride]
[1]
  free drug level: 63-100%
[2]; 40 mg/m^2 bolus + 40 mg/m^2 infusion, day 1
  toxicity in patient three at dose level 2: TLS complicated by uncontrollable hyperkalemia and subsequent fatal asystole
[2]; [8]
  Number of patients with AST Elevation Grade 5: 0
  Number of patients with Anemia Grade 5: 0
  Number of patients with Arthralgias Grade 5: 0
  Number of patients with Diarrhea Grade 5: 0
  Number of patients with Dyspnea Grade 5: 0
  Number of patients with Edema Grade 5: 0
  Number of patients with Fatigue Grade 5: 0
  Number of patients with Hypokalemia Grade 5: 0
  Number of patients with Infection Grade 3: 5
  Number of patients with Infection Grade 4: 0
  Number of patients with Infection Grade 5: 0
  Number of patients with Neutropenia Grade 5: 0
  Number of patients with Syncope Grade 5: 0
  Number of patients with Thrombocytopenia Grade 5: 0
  Number of patients with Tumor Lysis Syndrome Grade 5: 1
  Percentage of patients with Infection Grade 3: (22%)
  Percentage of patients with Tumor Lysis Syndrome Grade 5: 4%
[2]; human, in vivo
  patients with grade 1 diarrhea: 11
  patients with grade 2 diarrhea: 6
  patients with transient grade 1 fatigue: 13
  patients with transient grade 2 fatigue: 6
[2]; in vivo
  patients developing significant TLS that required temporary dialysis: one
[3]; 40 mg/m^2 bolus + 40 mg/m^2 infusion
  duration of partial response in patient two at dose level 2: > 13 month
[3]; among the 23 patients enrolled
  patients attaining a partial response (NCI 96 criteria), number: ten
  patients attaining a partial response (NCI 96 criteria), percentage: 43%
[3]; of ten responders, at eight and sixteen months
  responding patients relapsed: two
[3]; of ten responders, at five to 14+ months
  responding patients remaining in continuous remission: Eight
[3]; of the nine patients with measurable lymphadenopathy, by day 8 of cycle 1
  patients experiencing a 50% or greater reduction in lymphadenopathy: eight
Mcl-1; of the five non-responding patients examined
  patients with significant modulation of Mcl-1: None
Mcl-1; of three responding patients examined
  patients with decreased expression of Mcl-1 with treatment: two
RNA polymerase II
  change in serine-5 phosphorylation of RNA polymerase II: no change
[4]; 30 + 30 mg/m^2 (n = 20), Mean ± S.D.
  CL: 14.5 ± 6.5 L/hr/m^2
[4]; human, in vivo
  inter-patient variability of Cmax: two to three-fold
[4]; human, in vivo, 80 mg/m^2
  Cmax: 4400 nM
[4]; human, t1/2, 30 + 30 mg/m^2 (n = 20), Mean ± S.D.
  half-life: 14 ± 10.2 h
[4]; human, terminal half-life, mean±S.D., after the end of the 4-hour CIVI
  half-life: 14 ± 10.2 h
[4]; human, terminal half-life, range, after the end of the 4-hour CIVI
  half-life: 1.1 to 42.5 h
Patients with CLL [5]
  cases of TLS: 1
Patients with CLL [6]; [9]
  Response Rate (partial response), number of patients: 8
  Response Rate (partial response), percentage: 40%
Patients with CLL [6]; [10]
  Response Rate, number of patients: 1
  Response Rate, percentage: 33%
Patients with CLL [6]; Cohort 3, 30 + 30 mg/m^2 dose 1-4 then 30 + 50 mg/m^2, 19 pts
  Response Rate (partial response), percentage: 53%
Patients with CLL [6]; cohort 1 responders
  median response duration: exceeding 12 months
Patients with CLL [6]; cohort 3, 14 patients escalated with the 5th dose
  tumor cytoreduction with dose escalation: Increased tumor cytoreduction was observed in a majority of patients
[7]; [11]
  Cmax at 0.5 hr: 2080 nM
  Cmax at 4.5 hr: 960 nM
[7]; [12]
  Cmax at 0.5 hr: 1950 nM
  Cmax at 4.5 hr: 1540 nM
Relapsed CLL; 1-hour bolus, relapsed CLL
  response rate: 11%
Relapsed CLL; 24-hour infusion
  clinical activity / response: No activity; also recorded: no patients with CLL responded
Relapsed CLL; 72-hour continuous infusion
  clinical activity / response: No activity; also recorded: no patients with CLL responded

## CN1CC[C@H](c2c(O)cc(O)c3c(=O)cc(-c4ccccc4Cl)oc23)[C@H](O)C1 [Flavopiridol, (cis-5,7-dihydroxy-2-(2-chlorophenyl)-8-[4-(3-hydroxy-1-methyl)-piperidinyl]-1-benzopyran-4-one) hydrochloride]
CLL cells; 1 h, read-out: 1-hour LC50 required to induce apoptosis in CLL cells, 1-hour exposure, fetal calf serum
  CC50: 670 nM
CLL cells; 1 h, read-out: 1-hour LC50 required to induce apoptosis in CLL cells, 1-hour exposure, human serum
  CC50: 3510 nM
CLL cells; 24 h, read-out: 24-hour LC50 required to induce apoptosis in CLL cells, 24-hour exposure, fetal calf serum
  CC50: 120 nM
CLL cells; 24 h, read-out: 24-hour LC50 required to induce apoptosis in CLL cells, 24-hour exposure, human serum
  CC50: 470 nM
